The source made the active and inactive calls. No cut-off for these calls is given here.
Key:
[1] = test system: Human immunodeficiency virus 1; assay: Antiviral activity against HIV1 NL4-3 infected in human MT4 cells assessed as reduction in viral replication measured on day 3 post infection by Nano-Glo luciferase reporter gene assay; type: functional, organism-based; conditions: Human immunodeficiency virus 1, NL4-3, MT4, 72 h
[2] = Cytotoxicity against human MT4 cells assessed as reduction in cell viability after 3 days by CellTiter-Glo luminescent assay; type: cell-based
[3] = test system: COS; assay: Inhibition of BMS-806 resistant HIV1 YU2 gp120 T198P mutant-induced cell-cell fusion between viral envelope expressing African green monkey COS cells to CCR5 receptor expressing human TZM-bl cells at 5 uM after overnight incubation by Bright-Glo luciferase assay; type: cell-based; conditions: Human immunodeficiency virus type 1 (isolate YU2)
[4] = Inhibition of HIV1 YU2 gp120-induced cell-cell fusion between viral envelope expressing African green monkey COS cells to CCR5 receptor expressing human TZM-bl cells after overnight incubation by Bright-Glo luciferase assay; type: cell-based, Human immunodeficiency virus type 1 (isolate YU2); conditions: Human immunodeficiency virus 1, COS
[5] = test system: COS; assay: Inhibition of HIV1 8X gp120-induced cell-cell fusion between viral envelope expressing African green monkey COS cells and human TZM-bl cells up to 5 uM after overnight incubation by Bright-Glo luciferase assay; type: cell-based; conditions: Human immunodeficiency virus 1
[6] = test system: COS; assay: Inhibition of HIV1 YU2 gp120-induced cell-cell fusion between viral envelope expressing African green monkey COS cells to CCR5 receptor expressing human TZM-bl cells at 0.01 to 10 uM after overnight incubation by Bright-Glo luciferase assay; type: cell-based; conditions: Human immunodeficiency virus type 1 (isolate YU2)
[7] = test system: COS; assay: Inhibition of HIV1 NL4-3 Env-induced cell-cell fusion between viral envelope expressing African green monkey COS cells to CXCR4 receptor expressing human TZM-bl cells at 0.01 to 10 uM after overnight incubation by Bright-Glo luciferase assay; type: cell-based; conditions: Human immunodeficiency virus 1

| Structure (SMILES) | EC50 [1] [µM] | CC50 at 72 h [2] [µM] | other results |
| --- | --- | --- | --- |
| NCCCCN1CCCC2=C[C@H]3C[C@H](CN4CCCC[C@H]34)[C@@H]21 | 8 | > 69.2 | – |
| Cc1ccc(C(=O)NCCCCN2CCCC3=C[C@H]4C[C@H](CN5CCCC[C@H]45)[C@@H]32)cc1 | 4.98 | > 47.5 | – |
| COc1ccnc2[nH]cc(C(=O)C(=O)N3CCN(C(=O)c4ccccc4)C[C@H]3C)c12 | – | – | inhibition [3]: inactive; EC50 [4]: 0.1 µM; inhibition [5]: inactive |
| O=C(/C=C/c1ccc2c(c1)OCO2)NCCCCN1CCCC2=C[C@H]3C[C@H](CN4CCCC[C@H]34)[C@@H]21 | 3.17 | > 41.9 | – |
| O=C(Cc1ccc(OC(F)(F)F)cc1)NCCN1CCCC2=C[C@H]3C[C@H](CN4CCCC[C@H]34)[C@@H]21 | > 10 | > 41.9 | – |
| C1CN[C@@H]2C(C1)C[C@H]1C[C@@H]2CN2CCCC[C@H]12 (stereo partly specified) | > 10 | > 85.5 | – |
| O=C(/C=C/c1ccc2c(c1)OCO2)NCCN1CCCC2=C[C@H]3C[C@H](CN4CCCC[C@H]34)[C@@H]21 | > 10 | > 44.5 | – |
| O=C(NCCCCN1CCCC2=C[C@H]3C[C@H](CN4CCCC[C@H]34)[C@@H]21)c1ccc(O)cc1 | 4.57 | > 47.3 | – |
| CN1CCCC2=C[C@H]3C[C@H](CN4CCCC[C@H]34)[C@@H]21 | > 10 | > 81.3 | – |
| CN1CCCC2C[C@H]3C[C@H](CN4CCCC[C@H]34)[C@@H]21 (stereo partly specified) | > 10 | > 80.6 | – |
| C=C(C)[C@@H]1CC[C@]2(C(=O)NCCCCCCCNC(C)=O)CC[C@]3(C)[C@H](CC[C@@H]4[C@@]5(C)CC[C@H](O)C(C)(C)[C@@H]5CC[C@]43C)[C@@H]12 | 0.025 | > 32.8 | inhibition [6]: Active; inhibition [7]: Active |
| C1=C2CCCN(CCCCCNCc3ccccc3)[C@H]2[C@@H]2C[C@H]1[C@H]1CCCCN1C2 | 0.84 | 25.1 | – |

Continued, in another order:

| EC50 [1] [µM] | Structure (SMILES) | CC50 at 72 h [2] [µM] | other results |
| --- | --- | --- | --- |
| 2.06 | O=C(/C=C/c1ccc(OC(F)(F)F)cc1)NCCCCN1CCCC2=C[C@H]3C[C@H](CN4CCCC[C@H]34)[C@@H]21 | 9.02 | – |
| > 10 | O=C(NCCCCN1CCCC2=C[C@H]3C[C@H](CN4CCCC[C@H]34)[C@@H]21)c1ccccc1 | > 49.1 | – |
| > 10 | O=C(NCCN1CCCC2=C[C@H]3C[C@H](CN4CCCC[C@H]34)[C@@H]21)c1ccc(OC(F)(F)F)cc1 | > 43.2 | – |
| 5.44 | O=C(NCCCCCCN1CCCC2=C[C@H]3C[C@H](CN4CCCC[C@H]34)[C@@H]21)c1ccc(OC(F)(F)F)cc1 | 18.5 | – |
| 0.98 | O=C(NCCCCCN1CCCC2=C[C@H]3C[C@H](CN4CCCC[C@H]34)[C@@H]21)c1ccc(OC(F)(F)F)cc1 | 12.9 | – |
| 6.21 | O=C(NCCCCCN1CCCC2=C[C@H]3C[C@H](CN4CCCC[C@H]34)[C@@H]21)c1ccc(OC(F)(F)F)cc1F | > 38.2 | – |
| > 10 | O=C(NCCCCN1CCCC2=C[C@H]3C[C@H](CN4CCCC[C@H]34)[C@@H]21)c1ccccc1OC(F)(F)F | > 40.7 | – |

Source: ChEMBL document CHEMBL3804815, “Aloperine and Its Derivatives as a New Class of HIV-1 Entry Inhibitors” (ACS Med Chem Lett, 2016)
